Series [1] in a line: SPECT/CT imaging, gland uptake in a human subject. It is filed as in vivo.
Series [2] in a line: SPECT/CT imaging, SG uptake in rodent models. The series is classed as in vivo.
Series [3] relates to tumor. The series is described as follows: PET scan imaging of 68Ga-PSMA-617 tumor uptake. The series is classed as in vivo. The following applies: rodent models, PET scan image of a mouse, FIG. 2 panel A.
In series [4] the test system is tumor. The series can be described thus: PET scan imaging, tumor uptake of bifunctional (Sar cage) core compound. As to conditions: mouse, FIG. 5. The series is classed as in vivo.
A short description of series [5]: PET scan imaging, salivary gland uptake in non-human primate. The series is classed as in vivo. As to conditions: 24 hours post injection, relative to 64Cu-PSMA-617, FIG. 1 panel B. The method, then:
(§1) Indeed, SGs uptake of ^64Cu-NOTA-UNC-PSMA2 is only 1/10th of ^64Cu-PSMA-617 at 24 h post-injection in the NHP study (FIG. 1, panel B).

Series [6] deals with tumor. The series is described as follows: Imaging, tumor uptake in non-human primate models. It is filed as in vivo. As to conditions: non-human primate (NHP) models, times higher than PSMA-617. The method, then: as §1
A further series concerns PC3-PSMA model. The series is described as follows: PET scan imaging, tumor uptake in rodents. The series is classed as in vivo, mouse.

In the case of `O=C(O)CC[C@H](NC(=O)N[C@@H](CCCCNC(=O)[C@H](Cc1ccc2ccccc2c1)NC(=O)[C@H]1CC[C@H](CNC(=O)CN2CCN(CC(=O)O)CCN(CC(=O)O)CCN(CC(=O)O)CC2)CC1)C(=O)O)C(=O)O.[Lu+3]` [^177Lu-PSMA-617], the “SG uptake (in words)” value in series [1] (SPECT/CT imaging) and in series [2] was “prominent SG uptake” each time. Besides, in series [1] (SPECT/CT, 24 hours post injection, FIG. 2 panel B), the “glands uptake (in words)” value is given as “high glands uptake”.
For the molecule `O=C(O)CC[C@H](NC(=O)N[C@@H](CCCCNC(=O)[C@H](Cc1ccc2ccccc2c1)NC(=O)[C@H]1CC[C@H](CNC(=O)CN2CCN(CC(=O)O)CCN(CC(=O)O)CCN(CC(=O)O)CC2)CC1)C(=O)O)C(=O)O.[Ga+3]` [^68Ga-PSMA-617], the “tumor uptake profile (in words)” value with tumor [3] is given as “clean tumor uptake profile”.
For `N#CC1CCCN1C(=O)CNC(=O)c1ccnc2ccc(OCCCN3CCN(C(=O)CCOCCOCCNC(=O)NC45CNCCNCC(NC(=O)NCCOCCOCCC(=O)N6CCN(CCCOc7ccc8nccc(C(=O)NCC(=O)N9CCCC9C#N)c8c7)CC6)(CNCCNC4)CNCCNC5)CC3)cc12` (stereo not shown), in the series on tumor [4], the “uptake into a tumor (in words)” value is “Uptake of this compound into a tumor”.
Turning to `O=C(O)CC[C@H](NC(=O)N[C@@H](CCCCNC(=O)[C@H](Cc1ccc2ccccc2c1)NC(=O)C1CCC(CNC(=O)CSCCS(=O)(=O)CCOCCn2c(=O)n(CCOCCS(=O)(=O)CCSCC(=O)NC[C@H]3CC[C@H](C(=O)N[C@@H](Cc4ccc5ccccc5c4)C(=O)NCCCC[C@H](NC(=O)N[C@@H](CCC(=O)O)C(=O)O)C(=O)O)CC3)c(=O)n(CCOCCS(=O)(=O)CCSCC(=O)Nc3ccc(CC4CN(CC(=O)O)CCN(CC(=O)O)CCN4CC(=O)O)cc3)c2=O)CC1)C(=O)O)C(=O)O` (stereo partly shown) [^64Cu-NOTA-UNC-PSMA2, metal not drawn], the “SG uptake relative to 64Cu-PSMA-617” value in series [5] is recorded as 1/10. The “tumor uptake compared to PSMA-617” value is 2-3 times with tumor [6] and 2-3 times with PC3-PSMA model (rodent models, times higher than PSMA-617). The “distribution (in words)” value in the series with PC3-PSMA model (24 and 48 h post injection, FIG. 1 panel A) is “persistent as only the tumor demonstrated prominent compound uptake”. The “tumor uptake (in words)” value in the series with PC3-PSMA model (mouse, PC3-PSMA model, PET scan image, FIG. 1 panel A) is “high and persistent tumor uptake”.

The values above are taken from patent publication US20260335472A1, “MULTIFUNCTIONAL COMPOUND CORE FOR ACTIVE AGENTS AND USES THEREOF” (THE UNIVERSITY OF NORTH CAROLINA AT CHAPEL HILL, priority 2023, published 2026).
